# Reference: patent US20240300959A1, “BALASUBRAMIDE DERIVATIVE AND USE THEREOF IN PREPARATION OF MEDICINE FOR TREATING ACUTE LUNG INJURY” (Guangdong Pharmaceutical University, priority 2023, published 2024)
# Legend:
# RAW264.7 cells = assay: CCK-8 cell viability of RAW264.7 macrophages at different concentrations of (+)3C-20 (LPS experiment); assay type: cell-based, mice; conditions: RAW264.7 cell viability
# Description: RAW264.7 cells were inoculated into a 96-well plate at a density of 1×10^5 per well. When the cell density was 70%-80%, the RAW264.7 cells were pretreated with (+)3C-20 ([…]). After 3 h, lipopolysaccharide (LPS, 100 ng/mL) was added into all wells for action for 2 h except for a control group. The expression level of an inflammatory factor TNF-α in a cell supernatant was detected according to an operation instruction of a commercial ELISA kit, and the cell viability at different administration concentrations of (+)3C-20 was determined according to an operation instruction of a CCK-8 kit.
# [1] = tested on: mice with sepsis and lung injury caused by intraperitoneal injection of lipopolysaccharide; assay: Acute lung injury caused by sepsis (intraperitoneal injection of lipopolysaccharide); assay type: in vivo, ICR mice; conditions: for Content of TNF-α in serum (% of Model) / Area percentage of alveolar cells (%): 6 h after i.p. LPS; for Area percentage of alveolar cells (%): H&E lung sections; for Change multiple of IL-1β / Change multiple of IL-6 / Change multiple of TNF-α / Change multiple of iNOS: lung tissue RT-PCR; for Lung index (%): 6 h after i.p. LPS 10 mg/kg; for Body weight (Day 1) / Body weight (Day 2) / Body weight (Day 3): i.p. LPS sepsis model, in g (unit assumed)
# Description: Administration and grouping of animals: Male ICR mice were used as experimental animals, which were randomly divided into a control group, a model group, a positive administration group and administration groups according to the body weight. The control group and the model group were administered with a solvent by intraperitoneal injection (the solvent was prepared from DMSO, Kolliphor HS15 and Saline at a ratio of 1:2:7), the positive administration group was administered with 5 mg/kg dexamethasone (DEX) by intraperitoneal injection, and the administration groups were administered with (+)3C-20 at a concentration of 10 mg/kg and 50 mg/kg, respectively, by intraperitoneal injection. The dexamethasone and the (+)3C-20 were dissolved in the above solvent and were clear and transparent. The administration was continued for 3 days. 2 h after the last administration, all the other groups were administered with LPS (10 mg/kg) by intraperitoneal injection while the control group was administered with an equal volume of normal saline by intraperitoneal injection. Body weight and lung index: The mice were weighed and randomly divided on day 1 and continuously weighed for 3 days before administration, and growth conditions of the mice were measured by statistics. The mice were administered with LPS by intraperitoneal injection 2 h after administration on day 3, then the mice were dissected 6 h later, and the lungs were taken, weighed and recorded.
# On day 3, 6 h after the intraperitoneal injection of LPS, whole blood was collected from eye sockets and then subjected to centrifugation to prepare serum, and the serum was frozen at −80° C. The lungs were subjected to perfusion with PBS and fixed by paraformaldehyde, and the fixed lungs were stained with hematoxylin-eosin (H&E) after dehydration, paraffin embedding and sectioning. The serum was tested by a commercial TNF-α ELISA kit. Histopathological results and data statistics are shown in FIG. 7-1, FIG. 7-2 and Table 7.
# A small amount of frozen lung tissues were taken and fully ground, and the expression of inflammation related genes in the lung tissues was detected by an RT-PCR technology according to an operation instruction of an RNA extraction kit.
# [2] = tested on: TNF-α in bone marrow derived macrophages (BMDMs) stimulated by lipopolysaccharide; assay: TNF-α ELISA in LPS-stimulated bone marrow derived macrophages; assay type: cell-based, C57BL/6J mice; conditions: for Percentage of TNF-α in a model group (%): LPS 100 ng/mL 3 h
# Description: (1) Collection of bone marrow derived macrophages (BMDMs): C57BL/6J mice were sacrificed by dislocation of cervical vertebra, completely soaked and sterilized with 75% ethanol and placed faceup on a mouse board to fix the four limbs, the skin of the hind limbs was cut, the limbs were cut at ankle joints and femoral joints, and muscles and knee joints were removed. Precooled serum-free DMEM was sucked with a 1 mL syringe to rinse the bone marrow until a leg bone turned white, a rinsing solution was filtered with a 200-mesh filter membrane and then collected into a 15 mL centrifuge tube, centrifugation was performed at 500×g for 5 min, a supernatant was discarded, and a cell precipitate was resuspended with 1 mL of a red blood cell lysis buffer. After stomatocytosis was performed for 1 min, 5 mL of DMEM was added to stop the stomatocytosis, centrifugation was performed at 500×g for 5 min, a supernatant was discarded, and cells at a lower layer were resuspended overnight with DMEM containing 10% of FBS. Monocytes were collected by centrifugation and then resuspended with a DMEM culture medium containing 20% of FBS, and M-CSF was added at a final concentration of 25 ng/mL. The cells were inoculated into a 96-well plate at a density of 6×10^5, cultured in a cell incubator with a CO2 concentration of 5% at 37° C. for 48 h, and then cultured by adding M-CSF with a final concentration of 25 ng/mL into each well for 48 h until the monocytes were subjected to adherent culture and differentiation to obtain macrophages.
# The expression level of an inflammatory factor TNF-α in a cell supernatant was detected according to an operation instruction of a commercial ELISA kit, and the cell viability at different administration concentrations of (+)3C-20 was determined according to an operation instruction of a CCK-8 kit.
structure (smiles),measurement,setting,value
O=C(CCc1ccc(C(F)(F)F)cc1)O[C@@H]1C(=O)NCCc2c([nH]c3ccccc23)[C@H]1c1ccc(C(F)(F)F)cc1 [(+)-3C-20],Percentage of CCK-8 in a model group (%),RAW264.7 cells; 0.1 μM,108.6 ± 1.49%
same,Percentage of CCK-8 in a model group (%),RAW264.7 cells; 0.5 μM,106.11 ± 2.44%
same,Percentage of CCK-8 in a model group (%),RAW264.7 cells; 1 μM,106.01 ± 1.75%
same,Percentage of CCK-8 in a model group (%),RAW264.7 cells; 2 μM,106.41 ± 3.04%
same,Percentage of CCK-8 in a model group (%),RAW264.7 cells; 5 μM,105.55 ± 1.06%
same,Percentage of CCK-8 in a model group (%),RAW264.7 cells; 10 μM,96.64 ± 1.45%
same,Percentage of CCK-8 in a model group (%),RAW264.7 cells; 20 μM,95.83 ± 2.29%
same,Content of TNF-α in serum (% of Model),[1]; 10 mg/kg i.p.,78.38 ± 11.32 ^ % of Model
same,Area percentage of alveolar cells (%),[1]; 10 mg/kg i.p.,38.68 ± 3.73%
same,Change multiple of IL-1β,"[1]; 10 mg/kg i.p., i.p. LPS",9.68 ± 0.67
same,Change multiple of IL-6,"[1]; 10 mg/kg i.p., i.p. LPS",47.5 ± 7.38
same,Change multiple of TNF-α,"[1]; 10 mg/kg i.p., i.p. LPS",10.58 ± 1.72
same,Change multiple of iNOS,"[1]; 10 mg/kg i.p., i.p. LPS",12.44 ± 1.28 ^
same,Lung index (%),[1]; 10 mg/kg intraperitoneal 3 days,0.714 ± 0.02 ^ %
same,Body weight (Day 1),[1]; 10 mg/kg intraperitoneal,25.42 ± 1.1
same,Body weight (Day 2),[1]; 10 mg/kg intraperitoneal,25.46 ± 1.2
same,Body weight (Day 3),[1]; 10 mg/kg intraperitoneal,25.77 ± 1.03
same,Content of TNF-α in serum (% of Model),[1]; 50 mg/kg i.p.,55.06 ± 5.96 % of Model
same,Area percentage of alveolar cells (%),[1]; 50 mg/kg i.p.,30.43 ± 2.41 %
same,Change multiple of IL-1β,"[1]; 50 mg/kg i.p., i.p. LPS",10.13 ± 1.72
same,Change multiple of IL-6,"[1]; 50 mg/kg i.p., i.p. LPS",13.73 ± 1.56
same,Change multiple of TNF-α,"[1]; 50 mg/kg i.p., i.p. LPS",5.55 ± 0.86
same,Change multiple of iNOS,"[1]; 50 mg/kg i.p., i.p. LPS",5.42 ± 1.02
same,Lung index (%),[1]; 50 mg/kg intraperitoneal 3 days,0.672 ± 0.014 %
same,Body weight (Day 1),[1]; 50 mg/kg intraperitoneal,25.34 ± 0.57
same,Body weight (Day 2),[1]; 50 mg/kg intraperitoneal,26.16 ± 1.22
same,Body weight (Day 3),[1]; 50 mg/kg intraperitoneal,27.01 ± 1.08
same,"pathological lung injury compared with the model group, in words","[1]; 50 mg/kg, i.p. LPS",obviously relieving pathological lung injury
same,Percentage of TNF-α in a model group (%),[2]; 0.1 μM,88.17 ± 7.91%
same,Percentage of TNF-α in a model group (%),[2]; 1 μM,86.35 ± 7.41%
same,Percentage of TNF-α in a model group (%),[2]; 2.5 μM,62.94 ± 8.54 %
same,Percentage of TNF-α in a model group (%),[2]; 5 μM,35.12 ± 4.63 %
same,effective dose for inhibiting the expression of TNF-α for the BMDMs,[2]; LPS,2.5 μM or 5 μM
